Source: PubChem BioAssay (NCI)
Where “and” joins values, the source holds several entries; their conditions need not be identical. Equal values may be shown once.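 Dose response: 5 concentrations. Exposure: 48 h. Format: 96-well plates. Endpoint: linear interpolation; highest concentration if not reached. GI50 marks 50% less growth. Definition used: TGI = concentration required for complete inhibition of growth.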

Assays:
Assay in all cases: NCI tumour cell line growth inhibition, 48 h
CCRF-CEM leukemia = system: CCRF-CEM leukemia
HOP-62 NSCLC = system: HOP-62 NSCLC
IGROV1 ovarian = system: IGROV1 ovarian
NCI-H522 lung = system: NCI-H522 lung
NCI/ADR-RES ovarian = system: NCI/ADR-RES ovarian
OVCAR-8 ovarian = system: OVCAR-8 ovarian
SF-268 CNS = system: SF-268 CNS
SF-295 CNS = system: SF-295 CNS
SW-620 colon = system: SW-620 colon
U251 CNS = system: U251 CNS

Row | SMILES | TGI (CCRF-CEM leukemia) [µM] | TGI (HOP-62 NSCLC) [µM] | TGI (IGROV1 ovarian) [µM] | TGI (NCI-H522 lung) [µM] | TGI (NCI/ADR-RES ovarian) | TGI (OVCAR-8 ovarian) [µM] | TGI (SF-268 CNS) [µM] | TGI (SF-295 CNS) [µM] | TGI (SW-620 colon) [µM] | TGI (U251 CNS) [µM] | GI50 (SF-268 CNS) [µM] | GI50 (SF-295 CNS) [µM] | GI50 (CCRF-CEM leukemia) [µM] | GI50 (HOP-62 NSCLC) [µM] | GI50 (IGROV1 ovarian) [µM] | GI50 (NCI-H522 lung) [µM] | GI50 (NCI/ADR-RES ovarian) [µM] | GI50 (OVCAR-8 ovarian) [µM] | GI50 (SW-620 colon) [µM] | GI50 (U251 CNS) [µM]
1 | CCCCCCCCCCCCCCN | > 100 | > 100 | > 100 | > 100 | > 100 µM | > 100 | > 100 | > 100 | > 100 | > 100 | – | – | – | – | – | – | – | – | – | –
2 | COc1cc(/C=C\c2ccc(C)cc2)cc(OC)c1OC | < 0.044 | 34.1 | > 100 | 0.013 | 0.111 µM and 0.158 µM | – | > 63.3 | – | > 100 | 0.348 | < 0.0136 | 0.00818 | – | – | – | – | – | – | – | –
3 | O=[N+]([O-])c1ccc(S(=O)Cc2ccccc2)c([N+](=O)[O-])c1 (stereo not drawn) | 3 | 23.8 | 33.9 | 2.94 | 35.4 µM | 10.5 | 26.6 | 26.9 | 2.65 | 24.3 | 13.4 | 13.2 | 0.739 | 11.6 | 14.1 | 1.32 | 13.5 | 3.02 | 1.33 | 11.4
4 | COc1cc2c(c(OC)c1OC)-c1ccc(N)c(=O)cc1[C@@H](NC(C)=O)CC2 | > 100 | > 100 | – | < 0.021 | 41.2 µM | > 100 | > 100 | – | > 100 | > 100 | 0.0339 | 0.0339 | < 0.0147 | 0.0426 | 0.0359 | < 0.0114 | 3.43 | 0.0477 | < 0.01 | 0.0302
5 | CCn1c(C(=O)N(C2CC2)C2CC2)cc2c3c(ncn3C)c(Nc3cc(C)n(C)n3)nc21 | > 100 | > 100 | > 100 | > 100 | > 100 µM | > 100 | > 100 | > 100 | > 100 | > 100 | > 100 | > 100 | > 100 | > 100 | 7.62 | > 100 | > 100 | > 100 | > 100 | > 100
6 | CCOC(=O)C1=C(C(=O)c2ccc(C)cc2)C(c2cccc([N+](=O)[O-])c2)C(C(=O)c2ccc(C)cc2)=C(C(=O)OCC)N1 | 8.57 | 41 | 35.3 | 36.2 | 39.2 µM | 45 | 46.1 | 32.1 | 27.1 | 25.8 | – | – | – | – | – | – | – | – | – | –
7 | O=Nc1c(-c2c(O)[nH]c3ccc([N+](=O)[O-])cc23)[nH]c2ccc(O)cc12 | 12.2 | > 33.6 | > 100 | 2.67 | > 100 µM | > 100 | > 100 | > 100 | > 100 | > 35.1 | 0.474 | 0.62 | 0.11 | 0.524 | 0.312 | 0.38 | 1.44 | 0.36 | 0.385 | 0.325
8 | CCN(CC)CCNc1ccc([N+](=O)[O-])c2sc3ccccc3c(=O)c12 | 3.26 | 3.64 | 1.02 | – | 2.72 µM | 2.42 | 2.5 | – | 1.93 | 2.01 | 1.08 | – | 0.732 | 1.27 | 0.285 | – | 0.586 | 0.571 | 0.478 | 0.607
9 | COc1ccc(-c2oc3c(OC)c(OC)c(OC)c(O)c3c(=O)c2OC)cc1OC | > 71.3 | > 100 | 23.2 | 44.6 | > 72 µM | > 100 | > 55.1 | > 76.5 | > 66.1 | > 100 | – | – | – | – | – | – | – | – | – | –
10 | CCCCS(=O)CCC(N)C(=O)O (stereo not drawn) | > 100 | > 100 | > 100 | > 100 | > 100 µM | > 100 | > 100 | > 100 | > 100 | > 100 | – | – | – | – | – | – | – | – | – | –
11 | C=CCN(/C=C1/C(=O)O[C@H](COC)[C@@]2(C)C1=C(O)C(=O)C1=C2[C@H](OC(C)=O)C[C@]2(C)C(=O)CC[C@@H]12)CC=C | > 6.51 | > 10 | 6.81 | > 10 | > 10 µM | > 10 | > 10 | > 10 | > 10 | > 10 | 1.71 | 0.573 | 0.709 | 2.04 | 0.135 | 1.41 | > 4.75 | 2.87 | 2.17 | 2.12
12 | O=C1c2ccc([N+](=O)[O-])cc2-c2c1c1ccccc1c(=O)n2CCCNCCCNCCCn1c2c(c3ccc([N+](=O)[O-])cc3c1=O)C(=O)c1ccccc1-2 | 5.62 | 12.4 | 15.8 | 32.3 | 63.5 µM | 2.32 | 12.8 | 20.7 | 3.07 | 15.3 | 0.988 | 2.23 | 1.77 | 1.85 | 2.43 | 7.1 | 7.51 | 0.31 | 0.81 | 3.42
13 | CO/C(=N\N=C\c1cccc(Cl)c1)c1ccncc1 | > 10 | > 10 | – | > 10 | > 10 µM | > 10 | > 10 | > 10 | > 10 | > 10 | – | – | – | – | – | – | – | – | – | –
14 | Cc1ccc(/C(=N\N=C(N)N)c2ccccc2)cc1 | > 100 | 14.3 | 31.4 | 13.3 | 4.51 µM | 14.3 | 17.3 | 3.15 | 19.1 | 11.5 | 0.868 | 0.306 | 0.689 | 0.672 | 0.459 | 0.372 | 1.09 | 0.521 | 0.418 | 0.365
15 | CN1CCN(c2ccc(NC(=O)c3nc4ccc5[nH]ncc5c4c4c3CCCC4)cc2C(F)(F)F)CC1 | 3.33 | 1.89 | 1.73 | 1.88 | 4.21 µM | 1.91 | 19.3 | 4.16 | 2.2 | 1.77 | 3.89 | 1.39 | 1.07 | 0.918 | 0.821 | 0.856 | 1.27 | 0.921 | 0.947 | 0.926
